From US9168259B2 (GRÜNENTHAL GMBH, priority 2010, dated 2015)
Where two headings read alike, the source gives them in different places.

Molecular target: T1, KCNQ2/3 channels (Homo sapiens, UniProt O43525+O43526)
T1 construct: expressed in transfected cells
Assay: Fluorescence assay using a voltage sensitive dye (fluorimetry)
Format: cell-based

[1] = CHO-K1, plateau effect relative to saturated retigabine (50 μM) = 100%, CHO-K1 cells expressing KCNQ2/3, negative values = antagonistic, read-out: Fluorimetry % efficacy (retigabine = 100%)
[2] = CHO-K1 cells expressing KCNQ2/3, IC50 where % efficacy is negative, read-out: Fluorimetry EC50/IC50
[3] = CHO-K1, read-out: Fluorimetry % efficacy (retigabine = 100%)

T1 sequence (O43526 whole entry): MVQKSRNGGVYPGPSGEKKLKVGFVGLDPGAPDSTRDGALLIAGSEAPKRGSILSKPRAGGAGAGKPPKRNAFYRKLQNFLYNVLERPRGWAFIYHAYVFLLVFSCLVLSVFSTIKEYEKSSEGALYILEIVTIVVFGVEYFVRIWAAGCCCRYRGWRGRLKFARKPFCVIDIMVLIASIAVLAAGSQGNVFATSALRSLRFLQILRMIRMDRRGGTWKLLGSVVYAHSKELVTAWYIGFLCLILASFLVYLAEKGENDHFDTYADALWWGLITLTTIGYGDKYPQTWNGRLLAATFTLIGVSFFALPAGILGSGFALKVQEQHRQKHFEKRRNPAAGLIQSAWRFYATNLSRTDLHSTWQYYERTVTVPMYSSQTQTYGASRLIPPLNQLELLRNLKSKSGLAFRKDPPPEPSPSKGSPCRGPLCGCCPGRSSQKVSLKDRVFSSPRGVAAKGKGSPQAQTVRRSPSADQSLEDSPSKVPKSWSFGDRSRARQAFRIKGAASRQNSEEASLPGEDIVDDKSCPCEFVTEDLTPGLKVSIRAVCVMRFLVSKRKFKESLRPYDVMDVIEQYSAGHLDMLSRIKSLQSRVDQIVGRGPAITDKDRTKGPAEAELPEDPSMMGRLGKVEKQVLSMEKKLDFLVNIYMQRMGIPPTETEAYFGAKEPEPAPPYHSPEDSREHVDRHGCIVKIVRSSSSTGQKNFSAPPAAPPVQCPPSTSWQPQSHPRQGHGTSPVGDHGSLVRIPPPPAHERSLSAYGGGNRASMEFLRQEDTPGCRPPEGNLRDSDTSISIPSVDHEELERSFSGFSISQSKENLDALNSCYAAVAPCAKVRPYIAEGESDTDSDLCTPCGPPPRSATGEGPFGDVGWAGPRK
T1 sequence (O43525 whole entry): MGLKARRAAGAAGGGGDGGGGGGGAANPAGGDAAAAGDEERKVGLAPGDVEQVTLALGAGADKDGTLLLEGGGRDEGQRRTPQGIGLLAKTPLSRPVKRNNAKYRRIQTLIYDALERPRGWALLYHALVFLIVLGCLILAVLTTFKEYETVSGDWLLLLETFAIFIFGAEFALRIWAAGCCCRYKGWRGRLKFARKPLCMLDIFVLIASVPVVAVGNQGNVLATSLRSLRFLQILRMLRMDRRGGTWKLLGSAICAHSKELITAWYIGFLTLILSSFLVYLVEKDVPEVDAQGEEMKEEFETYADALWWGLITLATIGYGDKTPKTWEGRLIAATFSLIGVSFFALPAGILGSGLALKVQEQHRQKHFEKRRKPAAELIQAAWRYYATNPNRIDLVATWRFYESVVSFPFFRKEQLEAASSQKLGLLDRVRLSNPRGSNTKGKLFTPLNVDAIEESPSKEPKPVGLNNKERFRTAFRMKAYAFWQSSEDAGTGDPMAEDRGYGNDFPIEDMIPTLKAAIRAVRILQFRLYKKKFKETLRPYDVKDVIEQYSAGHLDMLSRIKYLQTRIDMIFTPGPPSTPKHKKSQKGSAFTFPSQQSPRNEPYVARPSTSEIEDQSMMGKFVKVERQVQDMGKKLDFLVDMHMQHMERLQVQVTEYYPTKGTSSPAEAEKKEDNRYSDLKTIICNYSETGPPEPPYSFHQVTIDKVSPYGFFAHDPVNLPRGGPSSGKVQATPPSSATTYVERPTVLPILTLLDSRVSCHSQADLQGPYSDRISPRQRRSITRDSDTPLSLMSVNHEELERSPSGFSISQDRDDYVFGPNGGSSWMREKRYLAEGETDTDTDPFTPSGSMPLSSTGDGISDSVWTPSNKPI

Row | SMILES | Emax [1] [%] | EC50 [2] [nM] | EC50 [nM] | Emax [3] [%]
1 | CCSc1nc(N(C)CC2CCCCO2)cc(C)c1C(=O)NCc1cccc(F)c1 (centres unmarked) [Example 5, 2-Ethylsulfanyl-N-[(3-fluorophenyl)-methyl]-4-methyl-6-[methyl-(tetrahydro-pyran-2-yl-methyl)-amino]-pyridine-3-carboxylic acid amide] | 111 | 269 |  | 
2 | CCSc1nc(N2CCOCC2)cc(C)c1C(=O)NCc1ccc(COC)c(F)c1 [Example 147, 2-Ethylsulfanyl-N-[[3-fluoro-4-(methoxymethyl)-phenyl]-methyl]-4-methyl-6-morpholin-4-yl-pyridine-3-carboxylic acid amide] | 153 | 530 |  | 
3 | COc1nc(N2CCOCC2)cc(C)c1C(=O)NCc1ccc(Cl)cc1 [Example 165, N-[(4-Chlorophenyl)-methyl]-2-methoxy-4-methyl-6-morpholin-4-yl-pyridine-3-carboxylic acid amide] | 135 | 230 |  | 
4 | CCSc1nc(N2CCOC[C@@H]2COC)cc(C)c1C(=O)NCc1cccc(F)c1 [Example 180, 2-Ethylsulfanyl-N-[(3-fluorophenyl)-methyl]-6-[(3S)-3-(methoxymethyl)-morpholin-4-yl]-4-methyl-pyridine-3-carboxylic acid amide] | 123 | 86 |  | 
5 | CCCc1nc(N2CCOC[C@H]2C)cc(C)c1C(=O)NCc1ccc(F)cc1 [Example 197, N-[(4-Fluorophenyl)-methyl]-4-methyl-6-[(3R)-3-methyl-morpholin-4-yl]-2-propyl-pyridine-3-carboxylic acid amide] | 211 | 142 |  | 
6 | COCCc1nc(N2CCOCC2)cc(C)c1C(=O)NCCCC(C)(C)C [Example 358, N-(4,4-Dimethyl-pentyl)-2-(2-methoxy-ethyl)-4-methyl-6-morpholin-4-yl-pyridine-3-carboxylic acid amide] |  |  | 1130 | 234
7 | CCSc1nc(N2CCS(=O)(=O)CC2)cc(C)c1C(=O)NCc1cccc(F)c1 [Example 298, 6-(1,1-Dioxo-[1,4]thiazinan-4-yl)-2-ethylsulfanyl-N-[(3-fluorophenyl)-methyl]-4-methyl-pyridine-3-carboxylic acid amide] | 127 | 4590 |  | 
8 | CCSc1nc(N2CCOCC2)cc(C)c1C(=O)NCc1ccc(N(C)C)cc1 [Example 148, N-[(4-Dimethylaminophenyl)-methyl]-2-ethylsulfanyl-4-methyl-6-morpholin-4-yl-pyridine-3-carboxylic acid amide] | 105 | 3620 |  | 
9 | CCSc1nc(NCCOC)cc(C)c1C(=O)NCc1cccc(F)c1 [Example 36, 2-Ethylsulfanyl-N-[(3-fluorophenyl)-methyl]-6-(2-methoxy-ethylamino)-4-methyl-pyridine-3-carboxylic acid amide] | 125 | 6000 |  | 
10 | CCSc1nc(N2CCOCC2)cc(C)c1C(=O)NCc1cc(F)cc(C(F)(F)F)c1 [Example 93, 2-Ethylsulfanyl-N-[[3-fluoro-5-(trifluoromethyl)-phenyl]-methyl]-4-methyl-6-morpholin-4-yl-pyridine-3-carboxylic acid amide] | 103 | 54 |  | 
11 | CCSc1nc(N(C)CCCOC)cc(C)c1C(=O)NCc1cccc(F)c1 [Example 128, 2-Ethylsulfanyl-N-[(3-fluorophenyl)-methyl]-6-(3-methoxy-propyl-methyl-amino)-4-methyl-pyridine-3-carboxylic acid amide] | 142 | 785 |  | 
12 | COCc1cc(CNC(=O)c2c(C)cc(N3CCOCC3)nc2C2CC2)ccc1F [Example 351, 2-Cyclopropyl-N-[[4-fluoro-3-(methoxymethyl)-phenyl]methyl]-4-methyl-6-morpholin-4-yl-pyridine-3-carboxylic acid amide] | 118 | 489 |  | 
13 | CCSc1nc(N2CCOC[C@@H]2C)cc(C)c1C(=O)NCc1cccc(F)c1 [Example 296, 2-Ethylsulfanyl-N-[(3-fluorophenyl)-methyl]-4-methyl-6-[(3S)-3-methyl-morpholin-4-yl]-pyridine-3-carboxylic acid amide] | 222 | 189 |  | 
14 | COC[C@@H]1CN(c2cc(C)c(C(=O)NCc3ccc(Cl)cc3)c(C(C)C)n2)CCO1 [Example 285, N-[(4-Chlorophenyl)-methyl]-2-isopropyl-6-[(2S)-2-(methoxymethyl)-morpholin-4-yl]-4-methyl-pyridine-3-carboxylic acid amide] | 126 | 157 |  | 
15 | CCSc1nc(N2CCOCC2)cc(C)c1C(=O)NCc1ccc(OC)cc1 [Example 137, 2-Ethylsulfanyl-N-[(4-methoxyphenyl)-methyl]-4-methyl-6-morpholin-4-yl-pyridine-3-carboxylic acid amide] | 151 | 1070 |  | 
16 | CCSc1nc(N2CCOCC2)cc(C)c1C(=O)NCCC(C)C [Example 42, 2-Ethylsulfanyl-4-methyl-N-(3-methyl-butyl)-6-morpholin-4-yl-pyridine-3-carboxylic acid amide] | 169 | 571 |  | 
17 | Cc1cc(N2CCOCC2)nc(OCCN(C)C)c1C(=O)NCc1ccc(Cl)cc1 [Example 283, N-[(4-Chlorophenyl)-methyl]-2-(2-dimethylaminoethyloxy)-4-methyl-6-morpholin-4-yl-pyridine-3-carboxylic acid amide] | 22 |  |  | 
18 | CCOc1nc(N2CCOCC2)cc(C)c1C(=O)NCc1ccc(F)cc1 [Example 64, 2-Ethoxy-N-[(4-fluorophenyl)-methyl]-4-methyl-6-morpholin-4-yl-pyridine-3-carboxylic acid amide] | 137 | 216 |  | 
19 | COc1nc(N2CCOCC2)cc(C)c1C(=O)NCc1ccccc1-c1ccccc1 [Example 88, 2-Methoxy-4-methyl-6-morpholin-4-yl-N-[(2-phenyl-phenyl)-methyl]-pyridine-3-carboxylic acid amide] | -83 | 253 |  | 
20 | CCCOc1nc(N2CCOCC2)cc(C)c1C(=O)NCc1cccc(F)c1 [Example 111, N-[(3-Fluorophenyl)-methyl]-4-methyl-6-morpholin-4-yl-2-propoxy-pyridine-3-carboxylic acid amide] | 153 | 109 |  | 
21 | CCSc1nc(N2CCO[C@H](COC)C2)cc(C)c1C(=O)NCc1cccc(F)c1 [Example 224, 2-Ethylsulfanyl-N-[(3-fluorophenyl)-methyl]-6-[(2S)-2-(methoxymethyl)-morpholin-4-yl]-4-methyl-pyridine-3-carboxylic acid amide] | 136 | 693 |  | 
22 | CCSc1nc(N2CCC(C(=O)OC)CC2)cc(C)c1C(=O)NCc1cccc(F)c1 [Example 13] |  | 1090 |  | 145
23 | CCOc1nc(N2CCOCC2)cc(C)c1C(=O)NCc1ccc(C(F)(F)F)cc1 [Example 132, 2-Ethoxy-4-methyl-6-morpholin-4-yl-N-[[4-(trifluoromethyl)-phenyl]-methyl]pyridine-3-carboxylic acid amide] | 122 | 110 |  | 
24 | CCSc1nc(N2CCOC(CC)C2)cc(C)c1C(=O)NCc1cccc(F)c1 (centres unmarked) [Example 167, 6-(2-Ethyl-morpholin-4-yl)-2-ethylsulfanyl-N-[(3-fluorophenyl)-methyl]-4-methyl-pyridine-3-carboxylic acid amide] | 137 | 113 |  | 
